This note sets out measurements from US20230107216A1, “PANTETHEINE DERIVATIVES AND USES THEREOF” (Comet Therapeutics, Inc., priority 2018, published 2023).

In experiment [1] the test system is primary culture of rat embryo mesencephalic cells (microglia, astrocytes and neurons) exposed to LPS. Nature of the experiment: Neuroprotective effect on damage induced by LPS on culture of mesencephalic neurons (NO, TNF-α, IL-1β, TH positive neurons). It counts as cell-based. Particulars: after 5 days of LPS exposure; for inhibition at 10 µM / inhibition at 50 µM: Rattus norvegicus, Neuron, 120 h, read-out: % reversion of TH positive neurons. The essentials: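 E15 Wistar rat ventral mesencephalic cultures, day 7, pretreated 1 h with compound (0.1% DMSO) before LPS 10 ng/ml. NO (Griess) at 24 h and 5 days and IL-1β/TNF-α (ELISA) at 24 h, expressed vs LPS control = 100%; TH+ neurons counted by imaging at 5 days, vs non-intoxicated = 100%.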

In experiment [2] the test system is Peripheral blood mononuclear cells co-cultured with B-cells (BT system). Briefly: cells. Conditions: Homo sapiens, 72 h; for activation at 1 µM / activation at 10 µM: read-out: % increase in sIL-6.

Where two headings read alike, the source gives them in different places. Bounds are passed on as bounds.

As to `C[C@@H](O)CC(=O)SCCNC(=O)CCNC(=O)[C@H](O)C(C)(C)CO` [Compound 38, S-2-{3-[(R)-2,4-dihydroxy-3,3-dimethylbutyrylamino]propionylamino} ethyl (R)-3-hydroxybutanethioate], the inhibition at 10 µM in experiment [1] (10 uM, list at threshold 15%) was at least 15%.
As for `CC(C)(CO)[C@@H](O)C(=O)NCCC(=O)NCCSC(CC(=O)OCC[N+](C)(C)C)C(=O)O` (stereo partly drawn) [Compound 51, [2-([3-carboxy-3-[(2-[3-[(2R)-2,4-dihydroxy-3,3-dimethylbutanamido]propanamido]ethyl)sulfanyl]propanoyl]oxy)ethyl]trimethylazanium], the “% decrease in NO release relative to LPS alone” value in experiment [1] (10 uM) is listed as at least 5%. Further, the inhibition at 50 µM in experiment [1] (50 uM, list at threshold 15%) is at least 15%; in experiment [1] (50 uM, list at threshold 50%), at least 50%.
For the compound `COC(=O)CCC(=O)SCCNC(=O)CCNC(=O)[C@H](OC(=O)CNC(C)=O)C(C)(C)CO` [Compound 1298, methyl 4-[(2-[3-[(2R)-2-[(2-acetamidoacetyl)oxy]-4-hydroxy-3,3-dimethylbutanamido]propanamido]ethyl)sulfanyl]-4-oxobutanoate], the activation at 1 µM in experiment [2] was at least 10%.
Turning to `C[C@@H](O)CC(=O)CC(=O)SCCNC(=O)CCNC(=O)[C@H](O)C(C)(C)CO` [Compound 42, (2R)-2,4-dihydroxy-N-[2-[(2-[[(5R)-5-hydroxy-3-oxohexanoyl]sulfanyl]ethyl)carbamoyl]ethyl]-3,3-dimethylbutanamide], the “% decrease in NO release relative to LPS alone” value in experiment [1] (50 uM) is given as at least 5%. The inhibition at 50 µM was at least 15% in experiment [1] (50 uM, list at threshold 15%) and at least 50% in experiment [1] (50 uM, list at threshold 50%).
As for `COC(=O)CC(C(C)=O)C(=O)SCCNC(=O)CCNC(=O)[C@H](O)C(C)(C)CO` (some centres unmarked) [Compound 410], the “% decrease in NO release relative to LPS alone” value in experiment [1] (50 uM) is on record as at least 10%. Also, in experiment [1] (50 uM, list at threshold 15%), the inhibition at 50 µM is at least 15%.
For the compound `CC(C)(CO)[C@@H](O)C(=O)NCCC(=O)NCCSC(=O)[C@@H](N)Cc1ccc(O)c(O)c1` [Compound 371, (2R)—N-[2-[(2-[[(2S)-2-amino-3-(3,4-dihydroxyphenyl)propanoyl]sulfanyl]ethyl)carbamoyl]ethyl]-2,4-dihydroxy-3,3-dimethylbutanamide], the inhibition at 10 µM in experiment [2] (read-out: % decrease in sIL-17) was at least 20%.
Consider `CC(C)(COC(=O)OCC[N+](C)(C)C)[C@@H](O)C(=O)NCCC(=O)NCCSC(=O)CCC(=O)O` [Compound 116, [2-([[(3R)-3-[[2-([2-[(3-carboxypropanoyl)sulfanyl]ethyl]carbamoyl)ethyl]carbamoyl]-3-hydroxy-2,2-dimethylpropoxy]carbonyl]oxy)ethyl]trimethylazanium], for which the inhibition at 10 µM in experiment [1] (10 uM, list at threshold 15%) was at least 15%.
`CCCCCCC(=O)SCCNC(=O)CCNC(=O)[C@H](O)C(C)(C)CO` [Compound 372, (2R)—N-(2-[[2-(heptanoylsulfanyl)ethyl]carbamoyl]ethyl)-2,4-dihydroxy-3,3-dimethylbutanamide]: the activation at 1 µM in experiment [2] was at least 10%.
Turning to `COC(=O)CCC(=O)SCCNC(=O)CCNC(=O)[C@H](O)C(C)(C)COC(C)=O` [Compound 138], the inhibition at 50 µM is at least 15% in experiment [1] (50 uM, list at threshold 15%) and at least 50% in experiment [1] (50 uM, list at threshold 50%). The inhibition at 1 µM in experiment [2] (read-out: % decrease in sIL-17) is at least 20%.
Regarding `CC(=O)SCCNC(=O)CCNC(=O)[C@H](O)C(C)(C)COC(=O)[C@@H](N)Cc1ccc(O)c(O)c1` [Compound 498, (3R)-3-[(2-[[2-(acetylsulfanyl)ethyl]carbamoyl]ethyl)carbamoyl]-3-hydroxy-2,2-dimethylpropyl (2S)-2-amino-3-(3,4-dihydroxyphenyl)propanoate], the inhibition at 50 µM in experiment [1] (50 uM, list at threshold 15%) is at least 15%. The activation at 10 µM in experiment [2] is at least 10%.
Consider `COC(=O)CCC(=O)SCCNC(=O)CCNC(=O)[C@H](OC(=O)CN)C(C)(C)CO` [Compound 1294, methyl 4-[(2-[3-[(2R)-2-[(2-aminoacetyl)oxy]-4-hydroxy-3,3-dimethylbutanamido]propanamido]ethyl)sulfanyl]-4-oxobutanoate], for which the inhibition at 1 µM in experiment [2] (read-out: % decrease in sIL-17) is at least 20%.
With `CC(=O)SCCNC(=O)CCNC(=O)[C@H](O)C(C)(C)COC(=O)[C@H](C)N` [Compound 502, (3R)-3-[(2-[[2-(acetylsulfanyl)ethyl]carbamoyl]ethyl)carbamoyl]-3-hydroxy-2,2-dimethylpropyl (2S)-2-aminopropanoate], in experiment [2] (read-out: % decrease in sIL-17), the inhibition at 1 µM was at least 20%. Further, the activation at 10 µM in experiment [2] is at least 10%.
Take `CC(=O)OCC(C)(C)[C@@H](O)C(=O)NCCC(=O)NCCSC(=O)CC(=O)CCC(=O)O` [Compound 140, 6-[(2-[3-[(2R)-4-(acetyloxy)-2-hydroxy-3,3-dimethylbutanamido]propanamido]ethyl)sulfanyl]-4,6-dioxohexanoic acid]: the inhibition at 50 µM in experiment [1] (50 uM, list at threshold 15%) is at least 15%; in experiment [1] (50 uM, list at threshold 50%), at least 50%.
